{
  "source": "paper PMC3040889",
  "about": "“Synthesis and Biological Evaluation of Delavayin-C” (Indian Journal of Pharmaceutical Sciences, 2008)",
  "format_in_all_cases": "cell-based",
  "key": {"[1]": {"test_system": "Bacillus subtilis", "experiment": "microbe, parasite or virus in culture", "settings": "disc diffusion, 50 μg/ml", "description": "(§1) The synthesized cyclic heptapeptide was screened in vitro for its antibacterial and antifungal activity by using disc diffusion method and tube dilution technique. The antibacterial activity was determined against four bacterial species (B. subtilis, S. aureus, E. coli and P. aeruginosa) and antifungal activity against Candida albican. In the disc diffusion method, the activity studies were carried out according to modified Kirby-Bauer method. Benzyl penicillin and fluconazole were used as standards against bacterial and fungal strains, respectively at a concentration of 50 μg/ml. Nutrient broth and Sabourds agar were used as a medium and dimethylformamide (DMF) was used as a solvent control for carrying out the activity. After preparation of the disc, allowed to stand for 24 h at 37°. The zone of inhibition, observed around the disks after incubation, was measured."}, "[2]": {"test_system": "Candida albicans", "experiment": "microbe, parasite or virus in culture", "settings": "disc diffusion, 50 μg/ml", "description": "as §1"}, "[3]": {"test_system": "Escherichia coli", "experiment": "microbe, parasite or virus in culture", "settings": "disc diffusion, 50 μg/ml", "description": "as §1"}, "[4]": {"test_system": "Psuedomonas aeruginosa", "experiment": "microbe, parasite or virus in culture", "settings": "disc diffusion, 50 μg/ml", "description": "as §1"}, "[5]": {"test_system": "Staphylococcus aureus", "experiment": "microbe, parasite or virus in culture", "settings": "disc diffusion, 50 μg/ml", "description": "as §1"}, "[6]": {"test_system": "Bacillus subtilis", "experiment": "tube dilution technique for minimum inhibitory concentration", "set-up": "key: (+) indicates presence of growth (no activity); –: absence of growth", "settings": "B. subtilis, nutrient broth, 37° for 24 h, turbidity", "description": "(§2) Compound inhibiting growth of microorganisms was further tested for minimum inhibitory concentration (MIC). A solution of the compound was prepared in DMF and a series of doubling dilutions prepared with sterile pipettes. To each of a series of sterile stoppered test tubes, a standard volume of nutrient broth medium was added. A control tube containing no antimicrobial agent was included. The inoculum consisting of an overnight broth culture of microorganisms was added to separate tubes. The tubes were incubated at 37° for 24 h and examined for turbidity. The tube with highest dilution showing no turbidity was the one containing compound with MIC."}, "[7]": {"test_system": "Candida albicans", "experiment": "tube dilution technique for minimum inhibitory concentration", "set-up": "key: (+) indicates presence of growth (no activity); –: absence of growth", "settings": "C. albicans, broth medium, 37° for 24 h, turbidity", "description": "as §2"}, "[8]": {"test_system": "Escherichia coli", "experiment": "tube dilution technique for minimum inhibitory concentration", "set-up": "key: (+) indicates presence of growth (no activity); –: absence of growth", "settings": "E. coli, nutrient broth, 37° for 24 h, turbidity", "description": "as §2"}, "[9]": {"test_system": "Psuedomonas aeruginosa", "experiment": "tube dilution technique for minimum inhibitory concentration", "set-up": "key: (+) indicates presence of growth (no activity); –: absence of growth", "settings": "P. aeruginosa, nutrient broth, 37° for 24 h, turbidity", "description": "as §2"}, "[10]": {"test_system": "Staphylococcus aureus", "experiment": "tube dilution technique for minimum inhibitory concentration", "set-up": "key: (+) indicates presence of growth (no activity); –: absence of growth", "settings": "S. auereus, nutrient broth, 37° for 24 h, turbidity", "description": "as §2"}, "[11]": {"settings": "24 h at 37°, DMF solvent control"}},
  "note": "Residues, ends and D or L forms follow the SMILES beside them.",
  "data": [
    {"smiles": "CC(C)[C@@H]1NC(=O)[C@@H]2CCCN2C(=O)[C@H](Cc2ccc(O)cc2)NC(=O)[C@H](Cc2ccc(O)cc2)NC(=O)[C@H](Cc2ccc(O)cc2)NC(=O)CNC(=O)[C@@H]2CCCN2C1=O", "note": "[Compound, delavayin-C, cyclo(gly-tyr-tyr-tyr-pro-val-pro)] (cyclo(GYYYPVP))", "values": [
      {"measurement": "activity against B. subtilis when compared with standard drug benzyl penicillin (in words)", "setting": "[1]", "value": "moderate activity"},
      {"measurement": "Diameter of zone of inhibition, B. Subtilis", "setting": "[1]; [11]", "value": 15, "unit": "mm"},
      {"measurement": "inhibition of growth against Candida albicans (in words)", "setting": "[2]", "value": "moderate inhibition of growth"},
      {"measurement": "Diameter of zone of inhibition, C. albicans", "setting": "[2]; [11]", "value": 18, "unit": "mm"},
      {"measurement": "activity against E. coli when compared with standard drug benzyl penicillin (in words)", "setting": "[3]", "value": "less activity"},
      {"measurement": "Diameter of zone of inhibition, E. coli", "setting": "[3]; [11]", "value": 10, "unit": "mm"},
      {"measurement": "activity against P. aeruginosa when compared with standard drug benzyl penicillin (in words)", "setting": "[4]", "value": "less activity"},
      {"measurement": "Diameter of zone of inhibition, P. aeruginosa", "setting": "[4]; [11]", "value": 11, "unit": "mm"},
      {"measurement": "activity against S. aureus when compared with standard drug benzyl penicillin (in words)", "setting": "[5]", "value": "moderate activity"},
      {"measurement": "Diameter of zone of inhibition, S. auereus", "setting": "[5]; [11]", "value": 21, "unit": "mm"},
      {"measurement": "Presence or absence of growth", "setting": "[6]; 1.56 μg/ml", "value": "+"},
      {"measurement": "Presence or absence of growth", "setting": "[6]; 3.13 μg/ml", "value": "+"},
      {"measurement": "Presence or absence of growth", "setting": "[6]; 6.25 μg/ml", "value": "+"},
      {"measurement": "Presence or absence of growth", "setting": "[6]; 12.5 μg/ml", "value": "+"},
      {"measurement": "Presence or absence of growth", "setting": "[6]; 25 μg/ml", "value": "+"},
      {"measurement": "Presence or absence of growth", "setting": "[6]; 50 μg/ml", "value": "–"},
      {"measurement": "Presence or absence of growth", "setting": "[6]; 100 μg/ml", "value": "–"},
      {"measurement": "Presence or absence of growth", "setting": "[7]; 1.56 μg/ml", "value": "+"},
      {"measurement": "Presence or absence of growth", "setting": "[7]; 3.13 μg/ml", "value": "+"},
      {"measurement": "Presence or absence of growth", "setting": "[7]; 6.25 μg/ml", "value": "+"},
      {"measurement": "Presence or absence of growth", "setting": "[7]; 12.5 μg/ml", "value": "+"},
      {"measurement": "Presence or absence of growth", "setting": "[7]; 25 μg/ml", "value": "+"},
      {"measurement": "Presence or absence of growth", "setting": "[7]; 50 μg/ml", "value": "–"},
      {"measurement": "Presence or absence of growth", "setting": "[7]; 100 μg/ml", "value": "–"},
      {"measurement": "Presence or absence of growth", "setting": "[8]; 1.56 μg/ml", "value": "+"},
      {"measurement": "Presence or absence of growth", "setting": "[8]; 3.13 μg/ml", "value": "+"},
      {"measurement": "Presence or absence of growth", "setting": "[8]; 6.25 μg/ml", "value": "+"},
      {"measurement": "Presence or absence of growth", "setting": "[8]; 12.5 μg/ml", "value": "+"},
      {"measurement": "Presence or absence of growth", "setting": "[8]; 25 μg/ml", "value": "+"},
      {"measurement": "Presence or absence of growth", "setting": "[8]; 50 μg/ml", "value": "+"},
      {"measurement": "Presence or absence of growth", "setting": "[8]; 100 μg/ml", "value": "–"},
      {"measurement": "Presence or absence of growth", "setting": "[9]; 1.56 μg/ml", "value": "+"},
      {"measurement": "Presence or absence of growth", "setting": "[9]; 3.13 μg/ml", "value": "+"},
      {"measurement": "Presence or absence of growth", "setting": "[9]; 6.25 μg/ml", "value": "+"},
      {"measurement": "Presence or absence of growth", "setting": "[9]; 12.5 μg/ml", "value": "+"},
      {"measurement": "Presence or absence of growth", "setting": "[9]; 25 μg/ml", "value": "+"},
      {"measurement": "Presence or absence of growth", "setting": "[9]; 50 μg/ml", "value": "+"},
      {"measurement": "Presence or absence of growth", "setting": "[9]; 100 μg/ml", "value": "–"},
      {"measurement": "Presence or absence of growth", "setting": "[10]; 1.56 μg/ml", "value": "+"},
      {"measurement": "Presence or absence of growth", "setting": "[10]; 3.13 μg/ml", "value": "+"},
      {"measurement": "Presence or absence of growth", "setting": "[10]; 6.25 μg/ml", "value": "+"},
      {"measurement": "Presence or absence of growth", "setting": "[10]; 12.5 μg/ml", "value": "+"},
      {"measurement": "Presence or absence of growth", "setting": "[10]; 25 μg/ml", "value": "+"},
      {"measurement": "Presence or absence of growth", "setting": "[10]; 50 μg/ml", "value": "+"}
    ]},
    {"smiles": "CC1(C)S[C@@H]2[C@H](NC(=O)Cc3ccccc3)C(=O)N2[C@H]1C(=O)O", "note": "[Benzyl Penicillin, Benzyl penicillin, reference compound]", "values": [
      {"measurement": "zone of inhibition at 50 µg/mL", "setting": "[1]; Bacillus subtilis, 24 h at 37°, DMF solvent control, read-out: Diameter of zone of inhibition, B. Subtilis", "value": 15, "unit": "mm"},
      {"measurement": "Diameter of zone of inhibition, C. albicans", "setting": "[2]; [11]", "value": "-"},
      {"measurement": "zone of inhibition at 50 µg/mL", "setting": "[3]; Escherichia coli, 24 h at 37°, DMF solvent control, read-out: Diameter of zone of inhibition, E. coli", "value": 16, "unit": "mm"},
      {"measurement": "zone of inhibition at 50 µg/mL", "setting": "[4]; Pseudomonas aeruginosa, 24 h at 37°, DMF solvent control, read-out: Diameter of zone of inhibition, P. aeruginosa", "value": 17, "unit": "mm"},
      {"measurement": "zone of inhibition at 50 µg/mL", "setting": "[5]; Staphylococcus aureus, 24 h at 37°, DMF solvent control, read-out: Diameter of zone of inhibition, S. auereus", "value": 25, "unit": "mm"}
    ]},
    {"smiles": "OC(Cn1cncn1)(Cn1cncn1)c1ccc(F)cc1F", "note": "[Fluconazole, fluconazole, reference compound]", "values": [
      {"measurement": "Diameter of zone of inhibition, B. Subtilis", "setting": "[1]; [11]", "value": "-"},
      {"measurement": "zone of inhibition at 50 µg/mL", "setting": "[2]; Candida albicans, 24 h at 37°, DMF solvent control, read-out: Diameter of zone of inhibition, C. albicans", "value": 20, "unit": "mm"},
      {"measurement": "Diameter of zone of inhibition, E. coli", "setting": "[3]; [11]", "value": "-"},
      {"measurement": "Diameter of zone of inhibition, P. aeruginosa", "setting": "[4]; [11]", "value": "-"},
      {"measurement": "Diameter of zone of inhibition, S. auereus", "setting": "[5]; [11]", "value": "-"}
    ]}
  ]
}
